≈ marks a conversion by molar mass, not a printed value.
Columns and labels:
Format in all cases: functional
Listeria monocytogenes [1] = experiment: Antibacterial activity against Listeria monocytogenes ATCC 19115 incubated for 16 to 24 hrs by broth microdilution method; settings: time 16-24 hrs
Listeria monocytogenes [2] = experiment: Antibacterial activity against Listeria monocytogenes EGD incubated for 16 to 24 hrs by broth microdilution method; settings: time 16-24 hrs
Staphylococcus aureus [3] = experiment: Antibacterial activity against Staphylococcus aureus USA300 incubated for 16 to 24 hrs by broth microdilution method; settings: time 16-24 hrs
Staphylococcus aureus [4] = experiment: Antibacterial activity against Staphylococcus aureus NCTC 8325-4 incubated for 16 to 24 hrs by broth microdilution method; settings: time 16-24 hrs
Staphylococcus aureus [5] = experiment: Antibacterial activity against Staphylococcus aureus ATCC 29213 incubated for 16 to 24 hrs by broth microdilution method; settings: time 16-24 hrs
Staphylococcus aureus [6] = experiment: Antibacterial activity against Staphylococcus aureus DU1090 incubated for 16 to 24 hrs by broth microdilution method; settings: time 16-24 hrs
Staphylococcus aureus [7] = experiment: Antibacterial activity against Staphylococcus aureus ATCC 25923 incubated for 16 to 24 hrs by broth microdilution method; settings: time 16-24 hrs
Staphylococcus aureus [8] = experiment: Antibacterial activity against Staphylococcus aureus ATCC 25904 incubated for 16 to 24 hrs by broth microdilution method; settings: time 16-24 hrs
Staphylococcus aureus [9] = experiment: Antibacterial activity against Staphylococcus aureus USA400 incubated for 16 to 24 hrs by broth microdilution method; settings: time 16-24 hrs
Streptococcus suis = experiment: Antibacterial activity against Streptococcus suis ZY05719 incubated for 16 to 24 hrs by broth microdilution method; settings: time 16-24 hrs
Staphylococcus aureus [10] = experiment: Induction of resistance development in Staphylococcus aureus USA300 assessed as fold increase in MIC incubated for 24 hrs measured after 14 passages by broth microdilution method
Staphylococcus aureus [11] = experiment: Antibacterial activity against methicillin-resistant Staphylococcus aureus MRSA 1 incubated for 16 to 24 hrs by broth microdilution method
Staphylococcus aureus [12] = experiment: Antibacterial activity against methicillin-resistant Staphylococcus aureus MRSA 2 incubated for 16 to 24 hrs by broth microdilution method; settings: time 16-24 hrs
[13] = Staphylococcus aureus, MRSA 1, time 16-24 hrs, read-out: MIC

| Compound | MIC (Listeria monocytogenes [1]) [µg/mL] | MIC (Listeria monocytogenes [2]) [µg/mL] | MIC (Staphylococcus aureus [3]) [µg/mL] | MIC (Staphylococcus aureus [4]) [µg/mL] | MIC (Staphylococcus aureus [5]) [µg/mL] | MIC (Staphylococcus aureus [6]) [µg/mL] | MIC (Staphylococcus aureus [7]) [µg/mL] | MIC (Staphylococcus aureus [8]) [µg/mL] | MIC (Staphylococcus aureus [9]) [µg/mL] | MIC (Streptococcus suis) [µg/mL] | fold change (FC) (Staphylococcus aureus [10]) | MIC (Staphylococcus aureus [11]; [13]) [µg/mL] | MIC (Staphylococcus aureus [11]; time 16-24 hrs) [µg/mL] | MIC (Staphylococcus aureus [12]) [µg/mL] |
| --- | --- | --- | --- | --- | --- | --- | --- | --- | --- | --- | --- | --- | --- | --- |
| CCn1c(=O)c(C(=O)Nc2nnc(-c3ccc(C(F)(F)F)cn3)s2)c(O)c2ccccc21 | 0.29 (≈ 0.628 µM) | 0.21 (≈ 0.455 µM) | 4.67 (≈ 10.1 µM) | > 8 | > 8 | 0.96 (≈ 2.08 µM) | 5.33 (≈ 11.6 µM) | 3.42 (≈ 7.41 µM) | 6.67 (≈ 14.5 µM) | – | – | – | – | – |
| CN[C@H](CC(C)C)C(=O)N[C@H]1C(=O)N[C@@H](CC(N)=O)C(=O)N[C@H]2C(=O)N[C@H]3C(=O)N[C@H](C(=O)N[C@H](C(=O)O)c4cc(O)cc(O)c4-c4cc3ccc4O)[C@H](O)c3ccc(c(Cl)c3)Oc3cc2cc(c3O[C@@H]2O[C@H](CO)[C@@H](O)[C@H](O)[C@H]2O[C@H]2C[C@](C)(N)[C@H](O)[C@H](C)O2)Oc2ccc(cc2Cl)[C@H]1O [VANCOMYCIN] | 1.83 (≈ 1.26 µM) | – | 2.33 (≈ 1.61 µM) | 1.83 (≈ 1.26 µM) | 1.71 (≈ 1.18 µM) | 1.67 (≈ 1.15 µM) | 2.67 (≈ 1.84 µM) | 3 (≈ 2.07 µM) | 2.5 (≈ 1.73 µM) | 0.15 (≈ 0.104 µM) | 16 | 2.33 (≈ 1.61 µM) | 1.33 (≈ 0.918 µM) | 1.33 (≈ 0.918 µM) |
| CCn1c(=O)c(C(=O)Nc2nnc(-c3cc(C)ccn3)s2)c(O)c2ccccc21 | 0.49 (≈ 1.2 µM) | 0.16 (≈ 0.393 µM) | 0.14 (≈ 0.344 µM) | 0.1 (≈ 0.245 µM) | 0.18 (≈ 0.442 µM) | 0.12 (≈ 0.295 µM) | 0.15 (≈ 0.368 µM) | 0.19 (≈ 0.466 µM) | 0.14 (≈ 0.344 µM) | – | – | – | – | – |
| CCn1c(=O)c(C(=O)Nc2nnc(-c3ccc(Br)cn3)s2)c(O)c2ccccc21 | 0.05 (≈ 0.106 µM) | 0.06 (≈ 0.127 µM) | 0.06 (≈ 0.127 µM) | 0.27 (≈ 0.572 µM) | 1.13 (≈ 2.39 µM) | 0.05 (≈ 0.106 µM) | 0.2 (≈ 0.423 µM) | 0.19 (≈ 0.402 µM) | 0.07 (≈ 0.148 µM) | – | – | – | – | – |
| CCn1c(=O)c(C(=O)Nc2nnc(-c3ncccc3C)s2)c(O)c2ccccc21 | > 8 | > 8 | > 8 | > 8 | > 8 | > 8 | > 8 | > 8 | > 8 | – | – | – | – | – |
| CCn1c(=O)c(C(=O)Nc2nnc(-c3ccc(F)cn3)s2)c(O)c2ccccc21 | 0.5 (≈ 1.22 µM) | 0.49 (≈ 1.19 µM) | 0.46 (≈ 1.12 µM) | 1.25 (≈ 3.04 µM) | 0.67 (≈ 1.63 µM) | 0.5 (≈ 1.22 µM) | 0.46 (≈ 1.12 µM) | 0.48 (≈ 1.17 µM) | 1.29 (≈ 3.14 µM) | – | – | – | – | – |
| CC1(C)S[C@H]([C@H](NC(=O)Cc2ccccc2)C(=O)NCc2ccccc2)N[C@H]1C(=O)N[C@H](Cc1ccccc1)[C@H](O)CC(=O)NCc1nc2ccccc2[nH]1 | 0.63 (≈ 0.827 µM) | 0.63 (≈ 0.827 µM) | 0.63 (≈ 0.827 µM) | 0.63 (≈ 0.827 µM) | 0.63 (≈ 0.827 µM) | 0.63 (≈ 0.827 µM) | 0.63 (≈ 0.827 µM) | 0.63 (≈ 0.827 µM) | 0.63 (≈ 0.827 µM) | – | – | – | – | – |
| CNC(C)[C@@H]1CC[C@@H](N)[C@@H](O[C@H]2[C@H](O)[C@@H](O[C@H]3OC[C@](C)(O)[C@H](NC)[C@H]3O)[C@H](N)C[C@@H]2N)O1.CN[C@@H]1[C@@H](O)[C@@H](O[C@@H]2[C@@H](O)[C@H](O[C@H]3O[C@H](C(C)N)CC[C@H]3N)[C@@H](N)C[C@H]2N)OC[C@]1(C)O.CN[C@@H]1[C@@H](O)[C@@H](O[C@@H]2[C@@H](O)[C@H](O[C@H]3O[C@H](CN)CC[C@H]3N)[C@@H](N)C[C@H]2N)OC[C@]1(C)O (some centres not stated) | 6 | – | 4 | 5.33 | 3 | 1.54 | 2.67 | > 4 | 3.67 | 6 | – | > 4 | 5.33 | > 4 |
| CN(C)c1cc(NC(=O)CNC(C)(C)C)c(O)c2c1C[C@H]1C[C@H]3[C@H](N(C)C)C(O)=C(C(N)=O)C(=O)[C@@]3(O)C(O)=C1C2=O [TIGECYCLINE] | 0.2 (≈ 0.341 µM) | – | 0.16 (≈ 0.273 µM) | 0.27 (≈ 0.461 µM) | 0.1 (≈ 0.171 µM) | 0.23 (≈ 0.393 µM) | 0.92 (≈ 1.57 µM) | 0.83 (≈ 1.42 µM) | 0.19 (≈ 0.324 µM) | 0.07 (≈ 0.12 µM) | – | – | – | 0.54 (≈ 0.922 µM) |
| CCn1c(=O)c(C(=O)Nc2nnc(-c3ncccc3F)s2)c(O)c2ccccc21 | 0.2 (≈ 0.486 µM) | 0.17 (≈ 0.413 µM) | 0.11 (≈ 0.267 µM) | 0.1 (≈ 0.243 µM) | 0.14 (≈ 0.34 µM) | 0.1 (≈ 0.243 µM) | 0.15 (≈ 0.365 µM) | 0.08 (≈ 0.194 µM) | 0.17 (≈ 0.413 µM) | – | – | – | – | – |
| CCn1c(=O)c(C(=O)Nc2nnc(-c3cccc(C)n3)s2)c(O)c2ccccc21 | 0.02 (≈ 0.0491 µM) | 0.02 (≈ 0.0491 µM) | 0.17 (≈ 0.417 µM) | 0.05 (≈ 0.123 µM) | 0.2 (≈ 0.491 µM) | 0.02 (≈ 0.0491 µM) | 0.04 (≈ 0.0982 µM) | 0.04 (≈ 0.0982 µM) | 0.08 (≈ 0.196 µM) | – | – | – | – | – |
